Positions of bridges follow the written chain, without caps; N, C: chain ends. Residues, ends and D or L forms follow the SMILES beside them.
Legend:
[1] = system: MDA-MB-231 breast cancer cells; details: read-out: IC50s, MDA-MB-231; inhibits cell growth by 50% at 24 hours of exposure; MTT or cell Titer-Glo
Procedure: (§1) 10,000 HT29 or SW480 human colon cancer cells, BxPC-3 human pancreatic cancer cells, and MCF7 and MDA-MB-231 breast cancer cells were obtained from American Type Culture Collection (ATTC), Manassas, Va., and were seeded in separate 96-well plates. After treatment with various concentrations (6.25 μM, 12.5 μM, 25 μM, 50 μM, 100 μM, or 200 μM) of test peptide for 24 h, cells were stained with MTT (3-(4,5-Dimethyl-2-thiazolyl)-2,5-diphenyl-2H-tetrazolium bromide, from Sigma-Aldrich) following the instructions of the manufacturer. Before dissolving MTT in SDS, the HT29 and SW480 cells were photographed using a digital camera connected with a phase-contrast microscope. (FIG. 2A1-8, and FIG. 2B1-6). Cells that are alive convert MTT into formazan in their active mitochondria and appear dark purple; dead cells are not stained by MTT and appear colorless.
(§2) The IC50 is the concentration of the test agent that inhibits cell growth by 50% at 24 hours of exposure. IC50s were determined using the MTT assay or using the cell Titer-Glo method and following the instructions of the manufacturer ([…]). […] (Sun, Y., and Rigas, B., (2008), Cancer Res., 68(20): 8269-8277).

[2] = system: BxPC-3 human pancreatic cancer cells; details: read-out: IC50s, BxPC3; inhibits cell growth by 50% at 24 hours of exposure; MTT or cell Titer-Glo
Procedure: as §1, §2

MCF7 breast cancer cells = details: read-out: IC50s, MCF7; inhibits cell growth by 50% at 24 hours of exposure; MTT or cell Titer-Glo
Procedure: as §1, §2

in vitro = details: human, NCM460 normal colon epithelial cells
Procedure: After treatment with various concentrations (6.25 μM, 12.5 μM, 25 μM, 50 μM, 100 μM, or 200 μM) of test peptide for 24 h, cells were stained with MTT (3-(4,5-Dimethyl-2-thiazolyl)-2,5-diphenyl-2H-tetrazolium bromide, from Sigma-Aldrich) following the instructions of the manufacturer. […] Cells that are alive convert MTT into formazan in their active mitochondria and appear dark purple; dead cells are not stained by MTT and appear colorless.

[3] = system: SW480 human colon cancer xenografts; experiment: SW480 human colon cancer xenografts in nude mice, tumor volume; format: in vivo; details: 500 μg/day intraperitoneally for 19 days
Procedure: (§3) Xenografts were generated as described in FIG. 3A-B and Example 3 except where noted. Each animal had two xenografts, one on its right flank and one on the left. In these studies, the effect of two doses of YJB01, 100 μg and 500 μg per animal were evaluated. The doses were administrated intraperitoneally once a day dissolved in phosphate buffered saline (PBS). Control animals were injected with PBS. Tumor volume was determined as described in Example 3. Tumor volume is expressed as mean±SEM.
as §3, with “the” for “FIG. 3A-B and”
Xenografts were generated as described in the Example 3 except that 8 Balb/c nude mice in each group were used in this experiment. Nude mice bearing SW480 xenografts were treated with 500 μg/day of YJB02 for 19 days. The doses were administrated intraperitoneally once a day dissolved in phosphate buffered saline (PBS). Control animals were treated with PBS.
Tumor volume was determined as described in Example 3. Tumor volume was monitored and graphed as set forth in FIG. 9A, and is expressed as mean±SEM.

SW480 tumor cells [4] = experiment: Ki-67 staining of xenograft tumor tissue for cell proliferation; format: in vivo, nude mice; details: tumors of mice treated 500 μg/day for 19 days
Procedure: (§4) Tumor tissue from the mice treated with PBS or YJB02 as described in Example 8 were utilized in this experiment. Cell death was determined by terminal deoxynucleotidyl transferase dUTP nick end labeling (TUNEL) staining sections of paraffin embedded tissues, as previously described (Ouyang, N., Williams, J. L., Tsioulias, G. J., Gao, J., Iatropoulos, M. J., Kopelovich, L., Kashfi, K., and Rigas, B. 2006. Nitric oxide-donating aspirin prevents pancreatic cancer in a hamster tumor model. Cancer Res 66:4503-4511). Cell proliferation was determined by staining sections of paraffin embedded tissues for Ki-67 (Santa Cruz Biotechnology, Calif.) as previously described (Id.)
Tissue slides from control or YJB02 treated tumors were stained with anti-Ki67 antibody (Santa Cruz Biotechnology, Santa Cruz, Calif., US). As shown in the lower panel of FIG. 10, YJB02 inhibited tumor cell proliferation. […] Slides were counter-stained with hematoxylin.

thioredoxin reductase [5] = biological target: T1, thioredoxin reductase (Rattus norvegicus, UniProt O89049)
T1 sequence (O89049 1-499): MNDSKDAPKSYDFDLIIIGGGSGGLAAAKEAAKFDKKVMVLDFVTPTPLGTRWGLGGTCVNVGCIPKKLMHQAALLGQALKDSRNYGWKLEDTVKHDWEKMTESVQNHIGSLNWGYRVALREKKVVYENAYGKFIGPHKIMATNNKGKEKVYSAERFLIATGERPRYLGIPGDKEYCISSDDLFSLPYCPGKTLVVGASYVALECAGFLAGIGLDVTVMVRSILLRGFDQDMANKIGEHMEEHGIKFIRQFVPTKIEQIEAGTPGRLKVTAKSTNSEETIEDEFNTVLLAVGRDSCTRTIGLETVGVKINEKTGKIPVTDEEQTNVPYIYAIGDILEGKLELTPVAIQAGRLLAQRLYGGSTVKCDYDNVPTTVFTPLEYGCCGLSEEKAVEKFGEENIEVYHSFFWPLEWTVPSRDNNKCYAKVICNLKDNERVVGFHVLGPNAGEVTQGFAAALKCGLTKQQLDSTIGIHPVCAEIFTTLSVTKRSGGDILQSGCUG
Procedure: (§5) The activity was determined based on the change in absorbance (ΔA412) per minute (ΔA412/min).

[6] = system: SW480 human colon cancer cells; experiment: In vitro cell viability assay by MTT / cell Titer-Glo, SW480
Procedure: as §1, §2
The effect of peptide YJB02 on SW480 colon cancer cells was compared to the effect of peptide YJB02 on the normal human colon epithelial cell line NCM460. […] The viability was determined as described in Example 2.

SW480 tumor cells [7] = experiment: TUNEL staining of xenograft tumor tissue for apoptosis; format: in vivo, nude mice; details: tumors of mice treated 500 μg/day for 19 days
Procedure: as §4
Slides were stained with TUNEL kit for apoptosis (available from Roche Applied Science, Indianapolis, Ind., US).

thioredoxin reductase [8] = biological target: T1, thioredoxin reductase; experiment: biochemical
Procedure: as §5

SMILES: CC[C@H](C)[C@H](NC(=O)[C@H](CCCCN)NC(=O)[C@@H](NC(=O)[C@H](CCC(N)=O)NC(=O)[C@H](CCCNC(=N)N)NC(=O)[C@@H]1CCCN1C(=O)[C@@H](NC(=O)[C@@H]1CSSC[C@H](NC(=O)[C@@H](NC(=O)CN)[C@@H](C)O)C(=O)N[C@@H](C(C)C)C(=O)N[C@@H](CC(N)=O)C(=O)N[C@@H](C(C)C)C(=O)NCC(=O)N1)[C@@H](C)CC)[C@@H](C)CC)C(=O)N[C@@H](Cc1c[nH]c2ccccc12)C(=O)N[C@@H](Cc1ccccc1)C(=O)N[C@@H](CCC(N)=O)C(=O)N[C@@H](CC(N)=O)C(=O)N[C@@H](CCCNC(=N)N)C(=O)N[C@@H](CCCNC(=N)N)C(=O)N[C@@H](CCSC)C(=O)N[C@@H](CCCCN)C(=O)N[C@@H](Cc1c[nH]c2ccccc12)C(=O)N[C@@H](CCCCN)C(=O)N[C@@H](CCCCN)C(=O)O [YJB02] (H-GTCVNVGCIPRQIKIWFQNRRMKWKK-OH; disulfide 3-8; N-terminus and C-terminus assumed)
- IC50 [1]: 243 µM
- IC50 [2]: 36 to 76 µM
- IC50 (MCF7 breast cancer cells): 213 µM
- viability at 24 h, 200 μmol/L (in vitro): 75%
- tumor volume ([3]; day 19, control 635 mm^3): 207 mm^3
- reduction in SW480 tumor growth ([3]; vs control): 67%
- Ki67 (+) signals in tumor tissue (SW480 tumor cells [4]): dramatically decreased
- thioredoxin reductase activity, ΔA412/min (thioredoxin reductase [5]): decreased by YJB02 in a dose dependent manner
- SW480 cells remained viable ([6]; 200 μmol/L, 24-hour treatment): 20%
- IC50 ([6]; read-out: IC50s, SW480, inhibits cell growth by 50% at 24 hours of exposure, MTT or cell Titer-Glo): < 12.5 µM
- TUNEL (+) cells in tumor tissue (SW480 tumor cells [7]): induced more TUNEL (+) cells than control tumors
- IC50 (thioredoxin reductase [8]): 0.036 µM

— patent US8754047B2, “Peptide compositions and methods of use” (The Research Foundation for the State University of New York, priority 2008, dated 2014)
